In ChEMBL document CHEMBL1135998, “Identification of orally active, potent, and selective 4-piperazinylquinazolines as antagonists of the platelet-derived growth factor receptor tyrosine kinase family” (J Med Chem, 2002):
Each block holds one molecule with its values, some of them ahead of it.

Key:
in vivo [1] = conditions: simiiformes, po, 5 mg/kg
in vivo [2] = conditions: dog, po, 5 mg/kg
in vivo [3] = conditions: dog, po, 5 mg/kg; remark: listed apart in the source
in vivo [4] = conditions: dog, po, 5 mg/kg; remark: listed apart in the source
in vivo [5] = conditions: rat, po, 5 mg/kg
in vivo [6] = conditions: simiiformes, po, 5 mg/kg; remark: listed apart in the source
in vivo [7] = assay: in vivo
in vivo [8] = conditions: rat, po, 5 mg/kg; remark: listed apart in the source
in vivo [9] = conditions: primates, po, 5 mg/kg
in vivo [10] = conditions: simiiformes, po, 10 mg/kg
in vivo [11] = conditions: rat, plasma, po, 30 mg/kg
in vivo [12] = conditions: rat, po, 30 mg/kg
in vivo [13] = conditions: simiiformes, plasma, po, 10 mg/kg
in vivo [14] = conditions: primates, po, 10 mg/kg
in vivo [15] = conditions: rat, po, 30 mg/kg; remark: listed apart in the source
in vivo [16] = conditions: primates, po, 5 mg/kg; remark: listed apart in the source
in vivo [17] = conditions: dog, po, 7.5 mg/kg
in vivo [18] = conditions: dog, po, 7.5 mg/kg; remark: listed apart in the source
in vivo [19] = conditions: rat, po, 30 mg/kg; remark: listed apart in the source
in vivo [20] = conditions: rat, po, 30 mg/kg; remark: listed apart in the source
in vivo [21] = conditions: dog, po, 7.5 mg/kg; remark: listed apart in the source

- AUC (in vivo [1]): 663 ng·h/mL
- Cmax (in vivo [2]): 183 ng/mL
- bioavailability (in vivo [3]): 63.3%
- AUC (in vivo [4]): 1390 ng·h/mL
- AUC (in vivo [5]): 176 ng·h/mL
- Cmax (in vivo [6]): 135 ng/mL
- Cmax (in vivo [7]): 49.2 ng/mL
- bioavailability (in vivo [8]): 20.8%
- bioavailability (in vivo [9]): 18.9%
SMILES: COc1cc2c(N3CCN(C(=O)Nc4ccc(OC(C)C)cc4)CC3)ncnc2cc1OCCCN1CCOCC1

- Cmax (in vivo [10]): 386 ng/mL
- Cmax (in vivo [2]): 43 ng/mL
- AUC (in vivo [11]): 4410 ng·h/mL
- bioavailability (in vivo [3]): 13.5%
- AUC (in vivo [4]): 387 ng·h/mL
- Cmax (in vivo [12]): 414 ng/mL
- AUC (in vivo [13]): 3080 ng·h/mL
- bioavailability (in vivo [14]): 38.8%
SMILES: COc1cc2c(N3CCN(C(=O)Nc4ccc(OC(C)C)cc4)CC3)ncnc2cc1OCCN1CCCCC1

- AUC (in vivo [15]): 1700 ng·h/mL
- bioavailability (in vivo [16]): 48.9%
- AUC (in vivo [1]): 2920 ng·h/mL
- Cmax (in vivo [17]): 481 ng/mL
- bioavailability (in vivo [18]): 97.6%
- bioavailability (in vivo [19]): 23.8%
- Cmax (in vivo [7]): 317 ng/mL
- Cmax (in vivo [20]): 256 ng/mL
- AUC (in vivo [21]): 2690 ng·h/mL
SMILES: COc1cc2c(N3CCN(C(=O)Nc4ccc(OC(C)C)cc4)CC3)ncnc2cc1OCCCN1CCCCC1 [TANDUTINIB]
